# Measurements: patent US20210340130A1, “Compositions and methods for treating attention deficit disorders” (priority 2016, published 2021)
# Like-named read-outs stand apart in the source and are kept apart here.
# Tests used:
# [1] = molecular target: acetylcholine esterase (Homo sapiens, UniProt P22303); assay: Acetylcholine esterase functional inhibition; assay type: biochemical
# [2] = system: adult patients with ADHD; assay: Phase 2 randomized, double-blind, 2-period crossover trial in adults with ADHD; assay type: in vivo
# Procedure: *This phase 2 study evaluated the efficacy, tolerability and safety of CX717 in the treatment of adult patients with ADHD. The study was designed and executed as a randomized, double-blind, multi-center, 2-period crossover study comparing 2 doses of CX717 (200 mg, or 800 mg, BID) with placebo. Each treatment period lasted 3 weeks with a 2-week washout in between. Subjects met DSM-IV criteria for adult ADHD and had moderate to severe symptoms. The primary efficacy measure was the change from baseline on the ADHD Rating Scale (ADHD-RS) with adult ADHD prompts.
# The present study further examined the clinical efficacy, tolerability and safety of CX717 as a drug treatment for adults with ADHD. […] Each treatment period was 3 weeks in duration with a 2-week washout in between. The study design was modeled after several similarly published ADHD studies with atomoxetine and stimulants, (Spencer et al.) with sample sizes in the mid 20s. Since this is the first such study with CX7171 in ADHD, it is assumed that efficacy would be achieved using historical assumptions in effect size, therefore, a total of 60 subjects were to be randomized.
# All patients met DSM-IV criteria for adult ADHD, established by the Adult ADHD Clinical Diagnostic Scale (ACDS) Version 1.2. All patients gave written informed consent prior to enrollment and the conduct of the study was approved by either the […] Review Board (IRB) at each site or by the central IRB. Each subject had at least moderately severe ADHD symptoms (ADHD-RS score of ≥22; Clinician's Global Impression of Severity [CGI-S] score of ≥4). Each subject was male, and between 18-50 years old, inclusively. Male patients were selected because the necessary reproductive toxicology studies that would have allowed women of childbearing potential to be included in the study had not been completed.
# CX717 capsules were administered orally as 200 mg BID or 800 mg BID doses. […] The study was divided into a series of periods: screening period—up to 4 weeks, treatment period 1-3 weeks; wash-out period—2 weeks; treatment period 2-3 weeks; follow-up period—approximately 1 week.
# The primary efficacy outcome measure was the comparison of each dose of CX717 versus placebo on the change from baseline in ADHD symptoms as measured by the ADHD-RS at Week 3. Secondary efficacy parameters included comparisons of each dose of CX717 versus placebo for the ADHD-RS Inattentiveness Subscale Score of the ADHD-RS.
# Safety was evaluated by adverse events (AEs), clinical laboratory tests, vital signs, physical examination, and electrocardiograms (ECGs).
# The primary efficacy endpoint was the change from baseline in the ADHD-RS total score. Variables for the primary endpoint as well as for the secondary endpoint were based on within patient comparisons of high dose with placebo and low dose with placebo. The analyses treated subjects receiving high dose or placebo in either order as a unique entity and similarly, subjects who received low dose or placebo in either order as a unique group of its own. The primary efficacy analysis utilized the paired t-test. Descriptive statistics (number of observations, mean, standard deviation, median, minimum and maximum values) for the total score and the change from baseline were calculated by treatment group and visit and the last value was presented for both the intent-to-treat (ITT) and per protocol (PP) populations. All hypotheses testing for change from Baseline of scores, except testing for significant interaction, were performed at the 2-tailed 5% alpha significance level. P-values, based on 2-tailed tests, were rounded to 1 more decimal place than the standard deviation, up to a maximum of 3 decimal places; p-values <0.001 were presented as ‘<0.001’ in all tables.
# [3] = system: Swiss Webster mice; assay: PTZ Proconvulsant test; assay type: in vivo; conditions: doses of 30 mg/kg or less, p.o.
# Procedure: Follow on studies of CX717 and 1739 are continuing, employing additional well-known models for ADHD drug efficacy, coupled with a variety of ongoing safety studies. Preliminary safety studies already completed have included a range of toxicity studies focusing on critical convulsant risks widely observed for previously-studied ampakines. Using the well known PTZ Proconvulsant test, non-GLP safety studies were conducted to examine proconvulsant activity of CX717. Swiss Webster mice (n=12/group) were dosed with CX717 (3, 10 or 30 mg/kg p.o.), vehicle (0.5% methocel p.o.) or a positive control, CGS8216 (10 mg/kg in 70% PEG300: 30% water i.p.). Thirty minutes later, the GABA-A antagonist, pentylenetetrazol (PTZ) was infused in the tail vein until tonic seizures were observed. The time at which the first clonic and tonic seizure was observed was noted and used to determine the dose of PTZ necessary to induce both clonic and tonic seizure.
# [4] = molecular target: cytosolic testosterone receptor (Homo sapiens, UniProt P10275); assay: Radioligand binding, testosterone receptor; conditions: read-out: inhibition of binding of a reference ligand
# [5] = Limit of solubility (in ACSF perfusion); assay type: physicochemical; conditions: artificial cerebral spinal fluid (ACSF), aqueous buffer, kinetic from dmso stock
# [6] = system: Rat (Lister); assay: 5 Choice serial reaction time task; assay type: in vivo
# Source text: Another useful animal model for evaluating ampakine activity is the Five Choice Serial Reaction Time Task in Rats. This assay requires rats to provide a single nose poke in response to a light stimulus presented in one of five locations within a 9-hole chamber. With a correct response a reward is delivered that the rat collects from the food magazine at the rear of the chamber. The withdrawal of its head from the food magazine initiates a short inter-trial interval followed by the presentation of the next randomly presented stimulus. An incorrect response results in a time out period (non-reinforcement) followed by the initiation of a new trial. Groups of 12 rats were used in this study, and all rats received all treatments using a randomized sequence. For evaluation using this model, CX1739 was selected as the exemplary low impact ampakine, administered at doses of 3 and 10 mg/kg i.p. 20 min prior to the start of the study.
# Chain of acetylcholine esterase (P22303 32-614): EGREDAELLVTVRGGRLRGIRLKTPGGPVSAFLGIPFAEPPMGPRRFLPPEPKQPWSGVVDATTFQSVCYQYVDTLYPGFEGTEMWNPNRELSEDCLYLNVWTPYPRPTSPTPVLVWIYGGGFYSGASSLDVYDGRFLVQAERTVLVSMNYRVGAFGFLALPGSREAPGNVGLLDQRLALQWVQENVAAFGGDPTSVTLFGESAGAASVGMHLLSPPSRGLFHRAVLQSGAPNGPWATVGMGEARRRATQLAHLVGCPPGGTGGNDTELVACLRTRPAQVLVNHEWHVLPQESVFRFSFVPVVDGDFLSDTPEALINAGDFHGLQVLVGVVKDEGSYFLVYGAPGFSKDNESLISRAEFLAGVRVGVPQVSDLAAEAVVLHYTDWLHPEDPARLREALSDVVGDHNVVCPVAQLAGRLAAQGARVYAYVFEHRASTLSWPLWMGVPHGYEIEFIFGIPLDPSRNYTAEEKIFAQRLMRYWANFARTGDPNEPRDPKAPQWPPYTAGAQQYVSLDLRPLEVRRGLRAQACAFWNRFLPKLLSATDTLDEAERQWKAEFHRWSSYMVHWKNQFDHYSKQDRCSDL
# Chain of cytosolic testosterone receptor (P10275 whole entry, the tested form may be a part): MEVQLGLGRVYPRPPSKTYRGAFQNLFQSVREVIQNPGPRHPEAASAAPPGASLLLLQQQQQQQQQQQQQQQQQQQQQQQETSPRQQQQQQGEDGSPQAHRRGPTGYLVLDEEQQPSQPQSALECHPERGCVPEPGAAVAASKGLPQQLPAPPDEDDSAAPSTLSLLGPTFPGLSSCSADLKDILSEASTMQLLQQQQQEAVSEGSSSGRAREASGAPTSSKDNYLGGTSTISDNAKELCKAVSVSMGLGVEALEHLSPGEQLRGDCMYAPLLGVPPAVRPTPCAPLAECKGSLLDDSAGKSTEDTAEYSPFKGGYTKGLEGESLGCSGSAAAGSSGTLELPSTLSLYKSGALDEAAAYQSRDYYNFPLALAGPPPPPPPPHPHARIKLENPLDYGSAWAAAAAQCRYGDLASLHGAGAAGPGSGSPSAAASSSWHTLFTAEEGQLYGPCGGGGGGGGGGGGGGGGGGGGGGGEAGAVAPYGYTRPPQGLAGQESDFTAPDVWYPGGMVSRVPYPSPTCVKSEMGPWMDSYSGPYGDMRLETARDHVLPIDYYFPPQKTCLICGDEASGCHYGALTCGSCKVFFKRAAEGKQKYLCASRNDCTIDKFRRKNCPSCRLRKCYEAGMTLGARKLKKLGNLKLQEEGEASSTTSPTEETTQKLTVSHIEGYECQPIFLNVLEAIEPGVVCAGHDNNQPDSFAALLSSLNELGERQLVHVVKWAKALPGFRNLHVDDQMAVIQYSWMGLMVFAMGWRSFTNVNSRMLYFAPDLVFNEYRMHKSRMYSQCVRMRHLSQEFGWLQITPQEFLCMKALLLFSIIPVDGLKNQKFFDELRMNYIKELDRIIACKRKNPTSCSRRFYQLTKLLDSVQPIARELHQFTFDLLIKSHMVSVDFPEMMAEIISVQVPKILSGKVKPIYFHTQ
structure (smiles),measurement,setting,value
"O=C(c1ccc2nonc2c1)N1CCOCC1 [CX717, 1-(benzofurazan-5-ylcarbonyl)morpholine]",Ki,[1],165 µM
same,inhibition at 100 µM,[1]; 100 μM,53%
same,ADHD-RS total and subscales versus placebo,[2]; 200 mg BID,no statistically significant differences
same,deaths or serious adverse events,[2]; 200 mg or 800 mg BID for 3 weeks,No deaths or serious adverse events
same,"total ADHD-RS, repeated measures analysis at endpoint","[2]; 800 mg BID vs placebo, p=0.002",superior efficacy compared to placebo
same,"ADHD-RS hyperactivity subscale, repeated measures analysis","[2]; 800 mg BID vs placebo, p=0.017",superior efficacy compared to placebo
same,"ADHD-RS inattentiveness subscale, repeated measures analysis","[2]; 800 mg BID vs placebo, p=0.027",superior efficacy compared to placebo
same,mean change from baseline of ADHR-RS total score,"[2]; 800 mg, 504 h",−9.95
same,ADHD-RS hyperactivity subscale mean difference vs placebo,"[2]; active dose vs. placebo, last value",1.94
same,tolerability and safety parameters,"[2]; either dose (200 mg or 800 mg BID), 3 weeks",well tolerated with no clinically significant changes in cardiovascular and other safety parameters
same,overall incidence of treatment-emergent adverse events (TEAEs),"[2]; high dose (800 mg BID), placebo high dose 56%",75%
same,ADHD-RS hyperactivity subscale mean difference vs placebo,"[2]; high dose, Week 1",2.00
same,ADHD-RS hyperactivity subscale mean score (change from baseline),"[2]; high dose, Week 1, ITT, placebo −2.22, p=0.192",−4.22
same,ADHD-RS hyperactivity subscale mean difference vs placebo,"[2]; high dose, Week 3",3.18
same,ADHD-RS hyperactivity subscale mean score (change from baseline),"[2]; high dose, Week 3, ITT, placebo −2.78, p=0.050",−5.68
same,difference from placebo in mean change of ADHR-RS total score,"[2]; high dose, after 3 weeks",−4.73
same,ADHD-RS hyperactivity subscale mean difference vs placebo,"[2]; high dose, last value",3.00
same,most frequently reported adverse events,[2]; in vivo,Sleep disturbances and headache
same,"ADHD-RS hyperactivity subscale versus placebo, repeated measures",[2]; low dose,No difference
same,ADHD-RS total score versus placebo,[2]; low dose (200 mg BID),did not differ from placebo
same,overall incidence of treatment-emergent adverse events (TEAEs),"[2]; low dose (200 mg BID), placebo low dose 55%",73%
same,proconvulsant activity: dose of PTZ required to elicit a seizure,[3],did not decrease the dose of PTZ required to elicit a seizure
"CN(C(=O)c1ccc2nonc2c1)C1CCOCC1 [CX1739, N-Methyl-N-tetrahydro-2H-pyran-4-yl-[2,1,3]-benzoxadiazole-5-carboxamide]",inhibition at 100 µM,[4],64%
same,solubility,[5]; read-out: limit of solubility,200 µM
same,solubility,[5]; read-out: limit of the drug's solubility,~200 µM
same,latency to correct responses,[6]; 10 mg/kg,significantly reduced
same,omissions,[6]; 10 mg/kg,significant improvement
same,accuracy of responding,[6]; 3 and 10 mg/kg ip,significantly improved
same,number of premature responses,[6]; 3 and 10 mg/kg ip,reduced
same,Minimum Effective Dose,"[6]; IP, dose range 3-10 mg/kg",3 mg/kg
